# US20250332139A1, “PS[…] AND THEIR USE FOR TREATING […] AND NE[…] DISORDERS” (Transcend Therapeutics, Inc., priority 2021, published 2025)
# Experiments:
# [1] = biological target: T1, 168 GPCRs (Homo sapiens, UniProt O43603); test: β-arrestin GPCR screen (PathHunter/GPCRmax), agonist mode; format: cell-based; details: GALR2; Agonist; 1 uM
# T1 construct: host or cells: PathHunter cell lines
# Experimental: (§1) For agonist determination, cells were incubated with sample to induce response. […] Vehicle concentration was 1%.
# [2] = biological target: T2, 168 GPCRs (Homo sapiens, UniProt O95136); test: as above; format: cell-based; details: GPCR EDG5; Agonist mode; 10 uM
# T2 construct: host or cells: PathHunter cell lines
# Experimental: as §1
# [3] = biological target: T3, 168 GPCRs (Homo sapiens, UniProt P11229); test: as above; format: cell-based; details: CHRM1, Agonist
# T3 construct: host or cells: PathHunter cell lines
# T3 sequence (P11229 whole entry): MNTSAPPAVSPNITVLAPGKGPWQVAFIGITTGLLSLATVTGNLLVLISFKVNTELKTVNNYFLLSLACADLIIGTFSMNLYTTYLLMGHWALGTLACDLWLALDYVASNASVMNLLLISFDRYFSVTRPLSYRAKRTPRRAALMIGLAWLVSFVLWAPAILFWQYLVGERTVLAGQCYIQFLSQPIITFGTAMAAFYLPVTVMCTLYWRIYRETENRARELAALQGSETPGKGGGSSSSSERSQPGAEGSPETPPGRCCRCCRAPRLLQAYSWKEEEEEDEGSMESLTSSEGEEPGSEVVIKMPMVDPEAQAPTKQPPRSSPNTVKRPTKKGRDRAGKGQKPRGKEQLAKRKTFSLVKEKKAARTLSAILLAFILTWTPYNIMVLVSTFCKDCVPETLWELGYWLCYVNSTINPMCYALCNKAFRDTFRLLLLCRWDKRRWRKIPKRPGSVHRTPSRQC
# Experimental: as §1
# [4] = biological target: T4, 168 GPCRs (Homo sapiens, UniProt P14416); test: as above; format: cell-based; details: GPCR DRD2L; Agonist mode; 10 uM
# T4 construct: host or cells: PathHunter cell lines
# Experimental: as §1
# [5] = biological target: T5, 168 GPCRs (Homo sapiens, UniProt P21917); test: as above; format: cell-based; details: GPCR DRD4; Agonist mode; 10 uM
# T5 construct: host or cells: PathHunter cell lines
# Experimental: as §1
# [6] = biological target: T6, 168 GPCRs (Homo sapiens, UniProt P23945); test: as above; format: cell-based; details: GPCR FSHR; Agonist mode; 10 uM
# T6 construct: host or cells: PathHunter cell lines
# T6 sequence (P23945 18-695): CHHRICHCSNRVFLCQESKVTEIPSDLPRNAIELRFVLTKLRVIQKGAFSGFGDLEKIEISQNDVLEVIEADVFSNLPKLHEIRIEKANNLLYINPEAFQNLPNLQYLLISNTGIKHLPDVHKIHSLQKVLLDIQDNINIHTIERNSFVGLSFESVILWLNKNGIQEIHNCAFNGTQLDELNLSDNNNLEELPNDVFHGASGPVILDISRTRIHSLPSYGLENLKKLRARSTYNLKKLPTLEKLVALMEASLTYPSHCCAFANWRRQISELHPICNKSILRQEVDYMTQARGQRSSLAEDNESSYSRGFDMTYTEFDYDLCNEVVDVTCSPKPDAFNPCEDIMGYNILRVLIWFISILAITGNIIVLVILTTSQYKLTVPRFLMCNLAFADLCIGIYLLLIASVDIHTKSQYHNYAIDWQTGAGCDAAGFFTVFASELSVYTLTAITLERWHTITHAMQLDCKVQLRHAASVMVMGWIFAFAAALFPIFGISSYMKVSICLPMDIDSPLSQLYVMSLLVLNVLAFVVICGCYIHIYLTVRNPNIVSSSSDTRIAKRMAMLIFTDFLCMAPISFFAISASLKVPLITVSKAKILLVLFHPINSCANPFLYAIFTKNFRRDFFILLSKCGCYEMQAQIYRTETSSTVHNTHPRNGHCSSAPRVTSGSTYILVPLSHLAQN
# Experimental: as §1
# [7] = biological target: T7, 168 GPCRs (Homo sapiens, UniProt P25021); test: as above; format: cell-based; details: GPCR HRH2; Agonist mode; 10 uM
# T7 construct: host or cells: PathHunter cell lines
# Experimental: as §1
# [8] = biological target: T8, 168 GPCRs (Homo sapiens, UniProt P25024); test: as above; format: cell-based; details: GPCR CXCR1; Agonist mode; 10 uM
# T8 construct: host or cells: PathHunter cell lines
# T8 sequence (P25024 whole entry): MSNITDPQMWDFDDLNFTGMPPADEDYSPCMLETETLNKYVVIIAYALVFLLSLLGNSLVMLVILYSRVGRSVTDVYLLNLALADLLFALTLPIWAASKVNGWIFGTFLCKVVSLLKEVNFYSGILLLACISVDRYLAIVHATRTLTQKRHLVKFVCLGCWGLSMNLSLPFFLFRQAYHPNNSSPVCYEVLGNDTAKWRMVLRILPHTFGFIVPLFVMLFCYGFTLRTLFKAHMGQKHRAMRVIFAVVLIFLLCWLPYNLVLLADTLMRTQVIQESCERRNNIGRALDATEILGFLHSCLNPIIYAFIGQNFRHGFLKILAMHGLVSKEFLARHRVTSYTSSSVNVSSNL
# Experimental: as §1
# [9] = biological target: T9, 168 GPCRs (Homo sapiens, UniProt P25025); test: as above; format: cell-based; details: GPCR CXCR2; Agonist mode; 10 uM
# T9 construct: host or cells: PathHunter cell lines
# Experimental: as §1
# [10] = biological target: T10, 168 GPCRs (Homo sapiens, UniProt P25116); test: as above; format: cell-based; details: F2R; Agonist; 1 uM
# T10 construct: host or cells: PathHunter cell lines
# Experimental: as §1
# [11] = biological target: T11, 168 GPCRs (Homo sapiens, UniProt P28222); test: as above; format: cell-based
# T11 construct: host or cells: PathHunter cell lines
# T11 sequence (P28222 whole entry): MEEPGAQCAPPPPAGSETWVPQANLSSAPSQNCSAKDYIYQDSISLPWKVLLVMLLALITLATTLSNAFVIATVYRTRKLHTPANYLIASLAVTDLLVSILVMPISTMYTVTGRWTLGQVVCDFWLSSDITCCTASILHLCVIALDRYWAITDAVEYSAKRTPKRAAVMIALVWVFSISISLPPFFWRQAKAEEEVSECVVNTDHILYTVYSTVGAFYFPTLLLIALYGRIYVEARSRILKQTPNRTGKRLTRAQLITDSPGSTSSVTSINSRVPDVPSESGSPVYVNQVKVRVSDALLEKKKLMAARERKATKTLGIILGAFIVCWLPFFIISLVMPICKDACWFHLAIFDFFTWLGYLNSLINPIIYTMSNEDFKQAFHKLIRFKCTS
# Experimental: as §1
# [12] = biological target: T12, 168 GPCRs (Homo sapiens, UniProt P30411); test: as above; format: cell-based; details: BDKRB2; Agonist; 10 uM
# T12 construct: host or cells: PathHunter cell lines
# Experimental: as §1
# [13] = biological target: T13, 168 GPCRs (Homo sapiens, UniProt P32247); test: as above; format: cell-based; details: BRS3; Agonist; 1 uM
# T13 construct: host or cells: PathHunter cell lines
# T13 sequence (P32247 whole entry): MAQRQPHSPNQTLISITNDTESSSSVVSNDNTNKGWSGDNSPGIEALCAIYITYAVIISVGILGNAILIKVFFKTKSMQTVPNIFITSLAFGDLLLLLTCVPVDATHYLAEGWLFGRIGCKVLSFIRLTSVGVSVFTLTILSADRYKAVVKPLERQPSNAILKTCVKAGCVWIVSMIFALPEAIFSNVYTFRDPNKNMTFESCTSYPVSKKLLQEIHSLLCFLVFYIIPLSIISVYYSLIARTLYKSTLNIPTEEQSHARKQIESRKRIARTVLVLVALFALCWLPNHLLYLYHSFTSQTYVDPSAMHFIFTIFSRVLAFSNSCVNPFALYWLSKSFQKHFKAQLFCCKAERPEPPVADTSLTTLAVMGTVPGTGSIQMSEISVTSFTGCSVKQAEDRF
# Experimental: as §1
# [14] = biological target: T14, 168 GPCRs (Homo sapiens, UniProt P48145); test: as above; format: cell-based; details: GPCR NPBWR1; Agonist mode; 10 uM
# T14 construct: host or cells: PathHunter cell lines
# T14 sequence (P48145 whole entry): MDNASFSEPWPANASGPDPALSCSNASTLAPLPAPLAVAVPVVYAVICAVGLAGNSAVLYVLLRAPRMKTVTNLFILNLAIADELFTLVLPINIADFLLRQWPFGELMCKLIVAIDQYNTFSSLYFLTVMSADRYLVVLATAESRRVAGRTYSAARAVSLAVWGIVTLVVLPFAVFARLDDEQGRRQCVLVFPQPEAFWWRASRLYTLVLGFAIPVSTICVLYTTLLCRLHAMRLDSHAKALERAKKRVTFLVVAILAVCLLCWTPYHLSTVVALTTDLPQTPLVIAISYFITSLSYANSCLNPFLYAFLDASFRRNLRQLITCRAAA
# Experimental: as §1
# [15] = biological target: T15, 168 GPCRs (Homo sapiens, UniProt P48546); test: as above; format: cell-based
# T15 construct: host or cells: PathHunter cell lines
# T15 sequence (P48546 22-466): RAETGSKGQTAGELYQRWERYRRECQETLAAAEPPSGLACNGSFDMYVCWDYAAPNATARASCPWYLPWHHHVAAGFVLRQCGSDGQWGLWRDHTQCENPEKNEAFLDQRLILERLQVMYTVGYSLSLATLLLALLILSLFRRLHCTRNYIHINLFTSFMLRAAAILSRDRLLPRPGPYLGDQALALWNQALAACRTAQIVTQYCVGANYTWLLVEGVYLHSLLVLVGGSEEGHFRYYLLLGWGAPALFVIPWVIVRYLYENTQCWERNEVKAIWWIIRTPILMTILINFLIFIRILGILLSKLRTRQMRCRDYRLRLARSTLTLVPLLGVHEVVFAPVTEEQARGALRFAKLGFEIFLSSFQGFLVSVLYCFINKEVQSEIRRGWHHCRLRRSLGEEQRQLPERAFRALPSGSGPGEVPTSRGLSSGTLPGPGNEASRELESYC
# Experimental: as §1
# [16] = biological target: T16, 168 GPCRs (Homo sapiens, UniProt P49682); test: as above; format: cell-based; details: GPCR CXCR3; Agonist mode; 10 uM
# T16 construct: host or cells: PathHunter cell lines
# Experimental: as §1
# [17] = biological target: T17, 168 GPCRs (Homo sapiens, UniProt P51582); test: as above; format: cell-based
# T17 construct: host or cells: PathHunter cell lines
# T17 sequence (P51582 whole entry): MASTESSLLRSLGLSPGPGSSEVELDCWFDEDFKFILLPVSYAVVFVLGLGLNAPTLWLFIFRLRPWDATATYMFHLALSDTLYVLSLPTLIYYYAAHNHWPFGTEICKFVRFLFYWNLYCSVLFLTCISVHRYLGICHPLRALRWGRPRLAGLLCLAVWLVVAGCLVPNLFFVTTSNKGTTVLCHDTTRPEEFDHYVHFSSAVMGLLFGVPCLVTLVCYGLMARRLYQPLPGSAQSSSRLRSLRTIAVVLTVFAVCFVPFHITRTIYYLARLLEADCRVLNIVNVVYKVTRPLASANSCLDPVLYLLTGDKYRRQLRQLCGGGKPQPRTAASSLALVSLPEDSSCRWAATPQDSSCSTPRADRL
# Experimental: as §1
# [18] = biological target: T18, 168 GPCRs (Homo sapiens, UniProt P51677); test: as above; format: cell-based; details: CCR3; Agonist; 1 uM
# T18 construct: host or cells: PathHunter cell lines
# Experimental: as §1
# [19] = biological target: T19, 168 GPCRs (Homo sapiens, UniProt P51679); test: as above; format: cell-based; details: CCR4; Agonist; 10 uM
# T19 construct: host or cells: PathHunter cell lines
# Experimental: as §1
# [20] = biological target: T20, 168 GPCRs (Homo sapiens, UniProt Q16602); test: as above; format: cell-based; details: CALCRL-RAMP3; Agonist; 10 uM
# T20 construct: host or cells: PathHunter cell lines
# Experimental: as §1
# [21] = biological target: T21, 168 GPCRs (Homo sapiens, UniProt Q96LB1); test: as above; format: cell-based; details: GPCR MRGPRX2; Agonist mode; 10 uM
# T21 construct: host or cells: PathHunter cell lines
# Experimental: as §1
# [22] = biological target: T22, 168 GPCRs (Homo sapiens, UniProt Q96P65); test: as above; format: cell-based; details: GPR103; Agonist; 1 uM
# T22 construct: host or cells: PathHunter cell lines
# Experimental: as §1
# [23] = Excipient compatibility study; format: physicochemical; details: 2 Week 40° C./75% RH, closed vial
# Experimental: Analyses were conducted at t=0, 2, 4 and 8 weeks for appearance, assay, and related substances for samples stored in closed vials at 25° C./60% RH and 40° C./75% RH.
# Excipient Compatibility Sample Mixtures: The excipients and API were dispensed individually by weight into 20 mL clear borosilicate (type I) glass vials to fill the appropriate weights as listed in Table 12. Table 12 lists mixtures of API with varied excipients and a stand-alone control sample of API alone. Each excipient mixture sample preparation was conducted using a clean spatula to mix the vial ingredients for 30-60 seconds. Each vial was properly labeled with the description and storage conditions. One vial was used for testing at the initial (t=0) time point. Three vials, closed, were placed at each storage condition to allow sampling at each time point and one vial, closed, was placed at each storage condition for overage.
# [24] = biological target: 168 GPCRs (Homo sapiens, UniProt O95838); test: β-arrestin GPCR screen (PathHunter/GPCRmax), agonist mode; format: cell-based; design: host or cells: PathHunter cell lines; details: GPCR GLP2R; Agonist mode; 10 uM
# Sequence of 168 GPCRs (Homo sapiens, UniProt O95838) (O95838 whole entry): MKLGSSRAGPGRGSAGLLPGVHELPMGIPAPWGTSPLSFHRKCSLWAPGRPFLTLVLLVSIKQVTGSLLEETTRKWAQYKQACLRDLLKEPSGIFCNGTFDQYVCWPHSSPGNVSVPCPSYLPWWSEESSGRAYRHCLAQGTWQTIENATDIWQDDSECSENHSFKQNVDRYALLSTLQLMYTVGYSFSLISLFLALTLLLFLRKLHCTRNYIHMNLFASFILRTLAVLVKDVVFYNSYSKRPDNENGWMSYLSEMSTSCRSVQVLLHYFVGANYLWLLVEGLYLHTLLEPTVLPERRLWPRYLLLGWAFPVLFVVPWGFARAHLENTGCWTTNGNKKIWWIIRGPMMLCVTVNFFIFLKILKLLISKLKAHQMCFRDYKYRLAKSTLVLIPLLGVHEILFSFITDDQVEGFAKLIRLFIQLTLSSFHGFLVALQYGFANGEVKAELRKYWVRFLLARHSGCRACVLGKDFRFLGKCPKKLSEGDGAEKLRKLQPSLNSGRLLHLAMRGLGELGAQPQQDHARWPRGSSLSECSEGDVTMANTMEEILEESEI
# Experimental: as §1
# [25] = biological target: 168 GPCRs (Homo sapiens, UniProt P32249); test: as above; format: cell-based; design: host or cells: PathHunter cell lines; details: GPCR EBI2; Agonist mode; 10 uM
# Sequence of 168 GPCRs (Homo sapiens, UniProt P32249) (P32249 whole entry): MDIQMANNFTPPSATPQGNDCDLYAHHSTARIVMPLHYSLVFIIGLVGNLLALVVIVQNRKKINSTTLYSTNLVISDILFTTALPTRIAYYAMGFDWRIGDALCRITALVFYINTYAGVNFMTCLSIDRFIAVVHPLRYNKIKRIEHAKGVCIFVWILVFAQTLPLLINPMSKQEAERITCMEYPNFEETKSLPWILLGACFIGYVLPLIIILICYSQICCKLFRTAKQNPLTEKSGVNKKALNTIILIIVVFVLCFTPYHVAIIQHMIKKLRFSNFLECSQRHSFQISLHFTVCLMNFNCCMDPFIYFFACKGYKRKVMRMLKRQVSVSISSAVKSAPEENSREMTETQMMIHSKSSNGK
# Experimental: as §1
# [26] = biological target: 168 GPCRs (Homo sapiens, UniProt Q8NFJ6); test: as above; format: cell-based; design: host or cells: PathHunter cell lines; details: PROKR2; Agonist; 1 uM
# Experimental: as §1
# [27] = biological target: 168 GPCRs (Homo sapiens, UniProt Q969F8); test: as above; format: cell-based; design: host or cells: PathHunter cell lines; details: KISS1R; Agonist; 1 uM
# Experimental: as §1
# T1 sequence (O43603 whole entry): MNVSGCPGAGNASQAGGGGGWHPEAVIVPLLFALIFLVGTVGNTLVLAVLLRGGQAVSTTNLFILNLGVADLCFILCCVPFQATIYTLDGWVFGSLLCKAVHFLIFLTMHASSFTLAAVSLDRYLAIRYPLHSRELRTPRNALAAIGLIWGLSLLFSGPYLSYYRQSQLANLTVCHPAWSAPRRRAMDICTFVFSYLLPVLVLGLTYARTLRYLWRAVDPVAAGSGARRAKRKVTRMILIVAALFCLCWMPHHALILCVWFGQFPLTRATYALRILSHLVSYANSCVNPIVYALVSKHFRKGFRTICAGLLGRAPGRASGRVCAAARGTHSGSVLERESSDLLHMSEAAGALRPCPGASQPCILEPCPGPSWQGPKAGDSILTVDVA
smiles,measurement,setting,value
"CNC(C)C(=O)c1ccc2c(c1)OCO2 (stereo not shown) [methylone, 3,4-methylenedioxy-N-methylcathinone]",activity at 1 µM,[1],-3.4%
same,activity at 10 µM,[2],-3.7%
same,activity at 1 µM,[3]; 1 uM,-3.1%
same,activity at 10 µM,[3]; 10 uM,-8.5%
same,activity at 10 µM,[4],-0.7%
same,activity at 10 µM,[5],-9.4%
same,activity at 10 µM,[6],-2.2%
same,activity at 10 µM,[7],-2.8%
same,activity at 10 µM,[8],-0.1%
same,activity at 10 µM,[9],-2.6%
same,activity at 1 µM,[10],-2.5%
same,activity at 10 µM,"[11]; GPCR HTR1B, Agonist mode, 10 uM",8.7%
same,activity at 1 µM,"[11]; HTR1B, Agonist, 1 uM",~3%
same,activity at 10 µM,[12],-2.9%
same,activity at 1 µM,[13],-4.5%
same,activity at 10 µM,[14],~-1%
same,activity at 1 µM,"[15]; GIPR, Agonist, 1 uM",~-2%
same,activity at 10 µM,"[15]; GPCR GIPR, Agonist mode, 10 uM",~-5%
same,activity at 10 µM,[16],~1%
same,activity at 10 µM,"[17]; GPCR P2RY4, Agonist mode, 10 uM",-4.1%
same,activity at 1 µM,"[17]; P2RY4, Agonist, 1 uM",~-3%
same,activity at 1 µM,[18],-0.7%
same,activity at 10 µM,[19],-1.4%
same,activity at 10 µM,[20],-2.2%
same,activity at 10 µM,[21],0.7%
same,activity at 1 µM,[22],~0%
same,Assay (% Recovery),[23],99.0 % Recovery
same,activity at 10 µM,[24],-1%
same,activity at 10 µM,[25],-0.1%
same,activity at 1 µM,[26],~0%
same,activity at 1 µM,[27],~-5%
